Experimental data reported in US20110218199A1, “PYRIDONEAMIDE DERIVATIVES, THEIR MANUFACTURE AND USE AS PHARMACEUTICAL AGENTS” (priority 2007, published 2011).

Test system: HCT 116 cells
Assay: CellTiter-Glo assay in HCT 116 cells (antiproliferative activity)
Format: cell-based
Details: Homo sapiens, HCT-116, 120 h, CellTiter-Glo cell viability, HCT 116 human colon carcinoma, 5 days (120 h) incubation
Text: Antiproliferative Activity:
CellTiter-Glo™ Assay in HCT 116 Cells:
The CellTiter-Glo™ Luminescent Cell Viability Assay (Promega) is a homogeneous method of determining the number of viable cells in culture based on quantitation of the ATP present, which signals the presence of metabolically active cells.
HCT 116 cells (human colon carcinoma, ATCC-No. CCl-247) were cultivated in RPMI 1640 medium with GlutaMAX• I (Invitrogen, Cat-No. 61870-010), 5% Fetal Calf Serum (FCS, Sigma Cat-No. F4135 (FBS)); 100 Units/ml penicillin/100 μg/ml streptomycin (=Pen/Strep from Invitrogen Cat. No. 15140). For the assay the cells were seeded in 384 well plates, 1000 cells per well, in the same medium. The next day the test compounds were added in various concentrations ranging from 30 μM to 0.0015 μM (10 concentrations, 1:3 diluted). After 5 days the CellTiter-Glo™ assay was done according to the instructions of the manufacturer (CellTiter-Glo™ Luminescent Cell Viability Assay, from Promega). In brief: the cell-plate was equilibrated to room temperature for approximately 30 minutes and than the CellTiter-Glo™ reagent was added. The contents were carefully mixed for 15 minutes to induce cell lysis. After 45 minutes the luminescent signal was measured in Victor 2, (scanning multiwell spectrophotometer, Wallac).
1st. Day: • Medium: RPMI 1640 with GlutaMAX™ I (Invitrogen, Cat-Nr. 61870), 5% FCS (Sigma Cat.-No. F4135), Pen/Strep (Invitrogen, Cat No. 15140). • HCT116 (ATCC-No. CC1-247): 1000 cells in 60 μl per well of 384 well plate (Greiner 781098, μClear-plate white) • After seeding incubate plates 24 h at 37° C., 5% CO2
2nd. Day: Induction (Treatment with Compounds, 10 Concentrations):
In order to achieve a final concentration of 30 μM as highest concentration 3.5 μl of 10 mM compound stock solution were added directly to 163 μl media. Then step e) of the dilution procedure described below, was followed.
In order to achieve the second highest to the lowest concentrations, a serial dilution with dilution steps of 1:3 was followed according to the procedure (a-e) as described here below: • a) for the second highest concentration add 10 μl of 10 mM stock solution of compound to 20 μl dimethylsulfoxide (DMSO) • b) dilute 8×1:3 (always 10 μl to 20 μl DMSO) in this DMSO dilution row (results in 9 wells with concentrations from 3333.3 μM to 0.51 μM) • c) dilute each concentration 1: 47.6 (3.5 μl compound dilution to 163 μl media) • d) add 10 μl of every concentration to 60 μl media in the cell plate resulting in final concentration of DMSO: 0.3% in every well and resulting in 10 final concentration of compounds ranging from 30 μM to 0.0015 μM. • Each compound is tested in triplicate. • Incubate 120 h (5 days) at 37° C., 5% CO2 […]
Add 30 μl CellTiter-Glo™ Reagent (prepared from CellTiter-Glo™ Buffer and CellTiter-Glo™ Substrate (lyophilized) purchased from Promega) per well, shake 15 minutes at room temperature incubate further 45 minutes at room temperature without shaking
Victor 2 scanning multiwell spectrophotometer (Wallac), Luminescence mode (0.5 sec/read, 477 nm) Determine IC50 using a non-linear curve fit (XLfit software (ID Business Solution Ltd., Guilford, Surrey, UK))

Row | IC50 [nM] | Compound
1 | 500 to 15000 | CN1CCN(c2ccc(NC(=O)c3c(NCCc4cccc(Cl)c4)cc[nH]c3=O)cc2F)CC1 [Example 4a, 4-[2-(3-Chloro-phenyl)-ethylamino]-2-oxo-1,2-dihydro-pyridine-3-carboxylic acid [3-fluoro-4-(4-methyl-piperazin-1-yl)-phenyl]-amide]
2 | 500 to 15000 | Cc1cccc(CCNc2cc[nH]c(=O)c2C(=O)Nc2cccc(N3CCN(C)CC3)c2)c1 [Example 4aa, 2-Oxo-4-(2-m-tolyl-ethylamino)-1,2-dihydro-pyridine-3-carboxylic acid [3-(4-methyl-piperazin-1-yl)-phenyl]-amide]
3 | 500 to 15000 | COc1ccccc1CCNc1cc[nH]c(=O)c1C(=O)Nc1cccc(N2CCN(C)CC2)c1 [Example 4ab, 4-[2-(2-Methoxy-phenyl)-ethylamino]-2-oxo-1,2-dihydro-pyridine-3-carboxylic acid [3-(4-methyl-piperazin-1-yl)-phenyl]-amide]
4 | 500 to 15000 | CN1CCN(c2cccc(NC(=O)c3c(NCCc4c[nH]c5ccccc45)cc[nH]c3=O)c2)CC1 [Example 4ae, 4-[2-(1H-Indol-3-yl)-ethylamino]-2-ozo-1,2-dihydro-pyridine-3-carboxylic acid [3-(4-methyl-piperazin-1-yl)-phenyl]-amide]
5 | 500 to 15000 | CN1CCN(c2ccc(NC(=O)c3c(NCCc4cccc(Cl)c4)cc[nH]c3=O)cc2)CC1 [Example 4b, 4-[2-(3-Chloro-phenyl)-ethylamino]-2-oxo-1,2-dihydro-pyridine-3-carboxylic acid [4-(4-methyl-piperazin-1-yl)-phenyl]-amide]
6 | 500 to 15000 | CN1CCN(c2ccc(NC(=O)c3c(NC[C@@H](O)c4ccccc4)cc[nH]c3=O)cc2F)CC1 [Example 4c, 4-[(S)-2-Hydroxy-2-phenyl-ethylamino]-2-oxo-1,2-dihydro-pyridine-3-carboxylic acid [3-fluoro-4-(4-methyl-piperazin-1-yl)-phenyl]-amide]
7 | 1250 | CC(=O)N1CCN(c2ccc(NC(=O)c3c(NC[C@@H](O)c4cccc(Cl)c4)cc[nH]c3=O)cc2C(F)(F)F)CC1 [Example 4d, 4-[(S)-2-(3-Chloro-phenyl)-2-hydroxy-ethylamino]-2-oxo-1,2-dihydro-pyridine-3-carboxylic acid [4-(4-acetyl-piperazin-1-yl)-3-trifluoromethyl-phenyl]-amide]
8 | 500 to 15000 | COc1ccc(NC(=O)c2c(NC[C@@H](O)c3cccc(Cl)c3)cc[nH]c2=O)cc1N1CCN(C)CC1 [Example 4i, 4-[(S)-2-(3-Chloro-phenyl)-2-hydroxy-ethylamino]-2-oxo-1,2-dihydro-pyridine-3-carboxylic acid [4-methoxy-3-(4-methyl-piperazin-1-yl)-phenyl]-amide]
9 | 500 to 15000 | O=C(Nc1cccc(N2CCOCC2)c1)c1c(NC[C@@H](O)c2cccc(Cl)c2)cc[nH]c1=O [Example 4m, 4-[(S)-2-(3-Chloro-phenyl)-2-hydroxy-ethylamino]-2-oxo-1,2-dihydro-pyridine-3-carboxylic acid (3-morpholin-4-yl-phenyl)-amide]
10 | 500 to 15000 | CS(=O)(=O)c1cccc(NC(=O)c2c(NC[C@@H](O)c3cccc(Cl)c3)cc[nH]c2=O)c1 [Example 4p, 4-[(S)-2-(3-Chloro-phenyl)-2-hydroxy-ethylamino]-2-oxo-1,2-dihydro-pyridine-3-carboxylic acid (3-methanesulfonyl-phenyl)-amide]
11 | 500 to 15000 | CSc1cccc(NC(=O)c2c(NC[C@@H](O)c3cccc(Cl)c3)cc[nH]c2=O)c1 [Example 4q, 4-[(S)-2-(3-Chloro-phenyl)-2-hydroxy-ethylamino]-2-oxo-1,2-dihydro-pyridine-3-carboxylic acid (3-methylsulfanyl-phenyl)-amide]
12 | 500 to 15000 | CN1CCN(c2cccc(NC(=O)c3c(NCCc4ccccc4)cc[nH]c3=O)c2)CC1 [Example 4v, 2-Oxo-4-phenethylamino-1,2-dihydro-pyridine-3-carboxylic acid [3-(4-methyl-piperazin-1-yl)-phenyl]-amide]
13 | 500 to 15000 | COc1cccc(CCNc2cc[nH]c(=O)c2C(=O)Nc2cccc(N3CCN(C)CC3)c2)c1 [Example 4y, 4-[2-(3-Methoxy-phenyl)-ethylamino]-2-oxo-1,2-dihydro-pyridine-3-carboxylic acid [3-(4-methyl-piperazin-1-yl)-phenyl]-amide]
14 | 500 to 15000 | CN1CCN(c2ccc(NC(=O)c3c(NCCc4ccccc4)cc[nH]c3=O)cc2)CC1 [Example 6ad, 2-Oxo-4-phenethylamino-1,2-dihydro-pyridine-3-carboxylic acid [4-(4-methyl-piperazin-1-yl)-phenyl]-amide]

The next lines start with the compound.

Row | Compound | IC50 [nM]
15 | O=C(Nc1ccc(N2CCOCC2)c(F)c1)c1c(NCCc2cccc(Cl)c2)cc[nH]c1=O [Example 2a, 4-[2-(3-Chloro-phenyl)-ethylamino]-2-oxo-1,2-dihydro-pyridine-3-carboxylic acid (3-fluoro-4-morpholin-4-yl-phenyl)-amide] | 500 to 15000
16 | O=C(Nc1cccc(N2CCCC2)c1)c1c(NCCc2cccc(Cl)c2)cc[nH]c1=O [Example 2e, 4-[2-(3-Chloro-phenyl)-ethylamino]-2-oxo-1,2-dihydro-pyridine-3-carboxylic acid (3-pyrrolidin-1-yl-phenyl)-amide] | 500 to 15000
17 | O=C(Nc1ccc(N2CCCC2)c(C(F)(F)F)c1)c1c(NCc2ccccn2)cc[nH]c1=O [Example 2j, 2-Oxo-4-[(pyridin-2-ylmethyl)-amino]-1,2-dihydro-pyridine-3-carboxylic acid (4-pyrrolidin-1-yl-3-trifluoromethyl-phenyl)-amide] | 500 to 15000
18 | CN1CCN(c2ccc(NC(=O)c3c(NCc4ccccn4)cc[nH]c3=O)cc2F)CC1 [Example 2k, 2-Oxo-4-[(pyridin-2-ylmethyl)-amino]-1,2-dihydro-pyridine-3-carboxylic acid [3-fluoro-4-(4-methyl-piperazin-1-yl)-phenyl]-amide] | 500 to 15000
19 | O=C(Nc1cccc(N2CCCCC2)c1)c1c(NCCc2cccc(Cl)c2)cc[nH]c1=O [Example 2n, 4-[2-(3-Chloro-phenyl)-ethylamino]-2-oxo-1,2-dihydro-pyridine-3-carboxylic acid (3-piperidin-1-yl-phenyl)-amide] | 500 to 15000
20 | O=C(Nc1cccc(N2CCCCC2)c1)c1c(NCc2ccccn2)cc[nH]c1=O [Example 2o, 2-Oxo-4-[(pyridin-2-ylmethyl)-amino]-1,2-dihydro-pyridine-3-carboxylic acid (3-piperidin-1-yl-phenyl)-amide] | 500 to 15000
21 | CN1CCN(c2ccc(NC(=O)c3c(NC[C@@H](O)c4cccc(Cl)c4)cc[nH]c3=O)cc2)CC1 [Example 2p, 4-[(S)-2-(3-Chloro-phenyl)-2-hydroxy-ethylamino]-2-oxo-1,2-dihydro-pyridine-3-carboxylic acid [4-(4-methyl-piperazin-1-yl)-phenyl]-amide] | 500 to 15000
22 | CN1CCN(c2ccc(NC(=O)c3c(NCc4ccccn4)cc[nH]c3=O)cc2)CC1 [Example 2s, 2-Oxo-4-[(pyridin-2-ylmethyl)-amino]-1,2-dihydro-pyridine-3-carboxylic acid [4-(4-methyl-piperazin-1-yl)-phenyl]-amide] | 500 to 15000
23 | CN(C)c1cccc(NC(=O)c2c(NC[C@@H](O)c3cccc(Cl)c3)cc[nH]c2=O)c1 [Example 2w, 4-[(S)-2-(3-Chloro-phenyl)-2-hydroxy-ethylamino]-2-oxo-1,2-dihydro-pyridine-3-carboxylic acid (3-dimethylamino-phenyl)-amide] | 500 to 15000
24 | CC(=O)N1CCN(c2ccc(NC(=O)c3c(NCC(O)c4ccccc4)cc[nH]c3=O)cc2C(F)(F)F)CC1 (stereo not drawn) [Example 3, 4-(2-Hydroxy-2-phenyl-ethylamino)-2-oxo-1,2-dihydro-pyridine-3-carboxylic acid[4-(4-acetyl-piperazin-1-yl)-3-trifluoromethyl-phenyl]-amide] | 500 to 15000
